Assay results as given in article PMC12205066, “Lysosomal EGFR acts as a Rheb-GEF independent of its kinase activity to activate mTORC1” (Cell Research, 2025).

Target: T1, Rheb (Homo sapiens, UniProt Q15382)
T1 construct: GST-tagged Rheb amino acids 1–169
Experiment: RP-HPLC of nucleotide released from purified denatured GST-Rheb
Type: binding

T1 sequence (Q15382 1-169): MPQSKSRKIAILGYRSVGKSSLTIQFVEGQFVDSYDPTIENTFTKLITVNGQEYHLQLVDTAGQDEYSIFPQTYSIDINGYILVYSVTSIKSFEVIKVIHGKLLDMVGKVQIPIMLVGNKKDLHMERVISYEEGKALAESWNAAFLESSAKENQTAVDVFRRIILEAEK

Nc1nc2c(ncn2[C@@H]2O[C@H](CO[P@](=O)(O)OP(=O)(O)O)[C@@H](O)[C@H]2O)c(=O)[nH]1 [GDP]
RP-HPLC of nucleotide released from purified denatured GST-Rheb: glutathione-S-transferase (GST)-tagged Rheb, which had a substantial GDP-bound fraction
